# How the values were obtained:
# cathepsin G = settings: cited from earlier work
# plasmin = settings: cited from earlier work
# neutrophils = settings: in vitro; cited from earlier work
# neutrophil elastase (NE) = settings: cited from earlier work
# purified NE = settings: purified enzyme, in vitro; cited from earlier work
# purified cathepsin G = settings: purified enzyme, in vitro; cited from earlier work
# K. pneumoniae = experiment: In vivo neutrophil microbial killing assay; design: species or system Klebsiella pneumoniae strain 43816; settings: thbs1^−/− mice; 10 µg/mouse i.p. 30 min prior to K. pneumoniae i.p.
substance,measurement,setting,value
TSP-1: matricellular protein that exists as a trimer of identical ~150–180 kDa subunits tethered together by disulfide bonds,reversible inhibition of CG,cathepsin G; in the absence of calcium,enhanced
same,stoichiometry: mol of cathepsin G bound per 1 mol of TSP-1 trimer,cathepsin G; in the presence of calcium,2.9 ± 0.4 mol
same,inhibition of purified cathepsin G,"cathepsin G; purified enzyme, in vitro",binds and competitively inhibits
same,Kd,"cathepsin G; read-out: site binding constant, TSP-1 trimer, cathepsin G, in the presence of calcium",7 ± 3.5 nM
same,inhibition of plasmin,"plasmin; in vitro, cleavage of fibrinogen",competitive inhibitor
same,predicted stoichiometry with plasmin,plasmin; stoichiometric predictions,one mole of TSP-1 interacting with one mole of plasmin
same,neutrophil motility and chemotaxis,neutrophils,can bind and induce the motility and chemotaxis of neutrophils in vitro
same,reversible inhibition of NE,neutrophil elastase (NE); in the absence of calcium,enhanced
same,stoichiometry: mol of NE bound per 1 mol of TSP-1 trimer,neutrophil elastase (NE); in the presence of calcium,2.7 ± 0.3 mol
same,inhibition of purified NE,"neutrophil elastase (NE); purified enzyme, in vitro",binds and competitively inhibits
same,Kd,"neutrophil elastase (NE); read-out: site binding constant, TSP-1 trimer, NE, in the presence of calcium",57 ± 13 nM
Ac-DNCQYVYNV-NH2 [DV-9],inhibition of purified NE,purified NE,inhibitory activity to both purified cathepsin G and NE
same,inhibition of purified cathepsin G,purified cathepsin G,inhibitory activity to both purified cathepsin G and NE
Ac-DNCPYVPNA-NH2 [DA-9],inhibition of purified NE,purified NE,without reactive-site sequence similarity or known inhibitory activity
same,inhibition of purified cathepsin G,purified cathepsin G,without reactive-site sequence similarity or known inhibitory activity
Ac-DNCPFHYNP-NH2 [DP-9],inhibition of purified cathepsin G,purified cathepsin G,ability to inhibit activity of purified cathepsin G in vitro
rTSP-1: recombinant TSP-1,bacterial killing function of thbs1^−/− neutrophils,K. pneumoniae,eliminated the enhanced bacterial killing function of thbs1^−/− neutrophils near to the level of WT neutrophils

# Source: PMC4465063 (Mucosal immunology, 2014)
